Assay results: ChEMBL document CHEMBL1144565, “Anti-breast cancer activity of LFM-A13, a potent inhibitor of Polo-like kinase (PLK)” (Bioorg Med Chem, 2007)
Active and inactive are the calls of the source. No cut-off for these calls is given here.

What was measured:
[1] = biological target: T1, Serine/threonine-protein kinase PLK1 (Xenopus laevis, UniProt P70032); assay: Inhibition of xenopus recombinant Plx1 expressed in Sf21 cells by measuring autophosphorylation by 15-mins kinase assay; format: functional
Mus musculus [2] = assay: Subacute toxicity in CD1 mouse assessed as absolute neutrophil counts at 40 mg/kg, ip after 30 days; format: organism-based; parameters: dose 40 mg/kg, route intraperitoneal; conditions: in vivo, 720 h
Rattus norvegicus [3] = assay: Toxicity in Lewis rat assessed as absolute neutrophil counts at 80 mg/kg, iv after 7 days; format: organism-based; parameters: dose 80 mg/kg, route intravenous; conditions: in vivo, 168 h
Mus musculus [4] = assay: Toxicity in ip dosed CD1 mouse; format: organism-based; conditions: in vivo
[5] = biological target: T1, Serine/threonine-protein kinase PLK1; assay: Inhibition of Xenopus recombinant Plx1 expressed in Sf21 cells by GST-Cdc25 substrate phosphorylation assay; format: functional
[6] = biological target: Platelet-derived growth factor receptor (Homo sapiens, UniProt P09619+P16234); assay: Inhibition of PDGFR; format: protein-complex assay
[7] = biological target: Hepatocyte growth factor receptor (Homo sapiens, UniProt P08581); assay: Inhibition of Met kinase
[8] = biological target: T2, Serine/threonine-protein kinase PLK3 (Homo sapiens, UniProt Q9H4B4); assay: Inhibition of human PLK3 in presence of 200 uM ATP
Mus musculus [9] = assay: Subacute toxicity in CD1 mouse assessed as absolute lymphocyte counts at 10 mg/kg, ip after 30 days; format: organism-based; parameters: dose 10 mg/kg, route intraperitoneal; conditions: in vivo, 720 h
Mus musculus [10] = assay: Subacute toxicity in CD1 mouse assessed as absolute neutrophil counts at 20 mg/kg, ip after 30 days; format: organism-based; parameters: dose 20 mg/kg, route intraperitoneal; conditions: in vivo, 720 h
Mus musculus [11] = assay: Subacute toxicity in CD1 mouse assessed as absolute neutrophil counts at 10 mg/kg, ip after 30 days; format: organism-based; parameters: dose 10 mg/kg, route intraperitoneal; conditions: in vivo, 720 h
Mus musculus [12] = assay: Acute toxicity in CD1 mouse assessed as myeloid or lymphoid hyperplasia in bone marrow at 10 mg/kg, ip after 7 days; format: organism-based; parameters: dose 10 mg/kg, route intraperitoneal; conditions: in vivo, 168 h
Mus musculus [13] = assay: Effect on non-proliferating tissue in po dosed BALB/c mouse assessed as toxic lesions in myocardium; format: ADME, organism-based; conditions: in vivo
Mus musculus [14] = assay: Effect on non-proliferating tissue in ip dosed CD1 mouse assessed as toxic lesions in lung; format: ADME, organism-based; conditions: in vivo
[15] = biological target: Cyclin-dependent kinase 1 (Homo sapiens, UniProt P06493); assay: Inhibition of CDK1
[16] = biological target: T2, Serine/threonine-protein kinase PLK3; assay: Inhibition of human PLK3 in presence of 25 uM ATP
[17] = biological target: Mast/stem cell growth factor receptor Kit (Homo sapiens, UniProt P10721); assay: Inhibition of C-Kit kinase
Mus musculus [18] = assay: Effect on non-proliferating tissue in po dosed BALB/c mouse assessed as toxic lesions in lung; format: ADME, organism-based; conditions: in vivo
Rattus norvegicus [19] = assay: Effect on non-proliferating tissue in iv dosed Lewis rat assessed as toxic lesions in brain on day 7; format: ADME, organism-based; conditions: in vivo
Mus musculus [20] = assay: Subacute toxicity in CD1 mouse assessed as WBC counts at 80 mg/kg, ip after 30 days; format: organism-based; parameters: dose 80 mg/kg, route intraperitoneal; conditions: in vivo, 720 h
Mus musculus [21] = assay: Toxicity in po dosed BALB/c mouse; format: organism-based; conditions: in vivo
Rattus norvegicus [22] = assay: Toxicity in Lewis rat assessed as absolute lymphocyte counts at 40 mg/kg, iv after 7 days; format: organism-based; parameters: dose 40 mg/kg, route intravenous; conditions: in vivo, 168 h
Mus musculus [23] = assay: Anti-breast cancer activity in ip dosed MMTV/Neu transgenic mouse assessed as tumor progression delay; format: functional, organism-based
Mus musculus [24] = assay: Effect on non-proliferating tissue in po dosed BALB/c mouse assessed as toxic lesions in kidney; format: ADME, organism-based; conditions: in vivo
[25] = biological target: Tyrosine-protein kinase ABL1 (Homo sapiens, UniProt P00519); assay: Inhibition of ABL kinase
Rattus norvegicus [26] = assay: Toxicity in iv dosed Lewis rat; format: organism-based; conditions: in vivo
Mus musculus [27] = assay: Effect on non-proliferating tissue in ip dosed CD1 mouse assessed as toxic lesions in brain; format: ADME, organism-based; conditions: in vivo
[28] = biological target: Cyclin-dependent kinase 2 (Homo sapiens, UniProt P24941); assay: Inhibition of CDK2
Mus musculus [29] = assay: Effect on non-proliferating tissue in ip dosed CD1 mouse assessed as toxic lesions in kidney; format: ADME, organism-based; conditions: in vivo
Mus musculus [30] = assay: Subacute toxicity in CD1 mouse assessed as absolute lymphocyte counts at 20 mg/kg, ip after 30 days; format: organism-based; parameters: dose 20 mg/kg, route intraperitoneal; conditions: in vivo, 720 h
Rattus norvegicus [31] = assay: Toxicity in Lewis rat assessed as myeloid or lymphoid hyperplasia in bone marrow at 40 mg/kg, iV after 7 days; format: organism-based; parameters: dose 40 mg/kg, route intravenous; conditions: in vivo, 168 h
Mus musculus [32] = assay: Toxicity in daily po dosed BALB/c mouse; format: organism-based; conditions: in vivo
Rattus norvegicus [33] = assay: Toxicity in Lewis rat assessed as absolute lymphocyte counts at 80 mg/kg, iv after 7 days; format: organism-based; parameters: dose 80 mg/kg, route intravenous; conditions: in vivo, 168 h
Mus musculus [34] = assay: Subacute toxicity in CD1 mouse assessed as absolute lymphocyte counts at 80 mg/kg, ip after 30 days; format: organism-based; parameters: dose 80 mg/kg, route intraperitoneal; conditions: in vivo, 720 h
Mus musculus [35] = assay: Subacute toxicity in CD1 mouse assessed as myeloid or lymphoid hyperplasia in bone marrow at 40 mg/kg, ip after 30 days; format: organism-based; parameters: dose 40 mg/kg, route intraperitoneal; conditions: in vivo, 720 h
U-373MG ATCC = assay: Induction of aberrant monopolar and multipolar spindle formation in human U373 cells at 100 uM; format: functional, cell-based
Mus musculus [36] = assay: Acute toxicity in CD1 mouse assessed as absolute neutrophil counts at 20 mg/kg, ip after 7 days; format: organism-based; parameters: dose 20 mg/kg, route intraperitoneal; conditions: in vivo, 168 h
Mus musculus [37] = assay: Effect on non-proliferating tissue in ip dosed CD1 mouse assessed as toxic lesions in myocardium; format: ADME, organism-based; conditions: in vivo
Rattus norvegicus [38] = assay: Toxicity in Lewis rat assessed as absolute lymphocyte counts at 20 mg/kg, iv after 7 days; format: organism-based; parameters: dose 20 mg/kg, route intravenous; conditions: in vivo, 168 h
Mus musculus [39] = assay: Subacute toxicity in CD1 mouse assessed as myeloid or lymphoid hyperplasia in bone marrow at 20 mg/kg, ip after 30 days; format: organism-based; parameters: dose 20 mg/kg, route intraperitoneal; conditions: in vivo, 720 h
Mus musculus [40] = assay: Acute toxicity in CD1 mouse assessed as myeloid or lymphoid hyperplasia in bone marrow at 20 mg/kg, ip after 7 days; format: organism-based; parameters: dose 20 mg/kg, route intraperitoneal; conditions: in vivo, 168 h
[41] = biological target: Mitogen-activated protein kinase 14 (Homo sapiens, UniProt Q16539); assay: Inhibition of SAPK2a
Mus musculus [42] = assay: Acute toxicity in CD1 mouse assessed as absolute lymphocyte counts at 20 mg/kg, ip after 7 days; format: organism-based; parameters: dose 20 mg/kg, route intraperitoneal; conditions: in vivo, 168 h
Mus musculus [43] = assay: Subacute toxicity in CD1 mouse assessed as WBC counts at 10 mg/kg, ip after 30 days; format: organism-based; parameters: dose 10 mg/kg, route intraperitoneal; conditions: in vivo, 720 h
Mus musculus [44] = assay: Acute toxicity in CD1 mouse assessed as absolute neutrophil counts at 80 mg/kg, ip after 7 days; format: organism-based; parameters: dose 80 mg/kg, route intraperitoneal; conditions: in vivo, 168 h
Mus musculus [45] = assay: Acute toxicity in CD1 mouse assessed as myeloid or lymphoid hyperplasia in bone marrow at 80 mg/kg, ip after 7 days; format: organism-based; parameters: dose 80 mg/kg, route intraperitoneal; conditions: in vivo, 168 h
Rattus norvegicus [46] = assay: Toxicity in Lewis rat assessed as absolute neutrophil counts at 40 mg/kg, iv after 7 days; format: organism-based; parameters: dose 40 mg/kg, route intravenous; conditions: in vivo, 168 h

T1 sequence (P70032 whole entry): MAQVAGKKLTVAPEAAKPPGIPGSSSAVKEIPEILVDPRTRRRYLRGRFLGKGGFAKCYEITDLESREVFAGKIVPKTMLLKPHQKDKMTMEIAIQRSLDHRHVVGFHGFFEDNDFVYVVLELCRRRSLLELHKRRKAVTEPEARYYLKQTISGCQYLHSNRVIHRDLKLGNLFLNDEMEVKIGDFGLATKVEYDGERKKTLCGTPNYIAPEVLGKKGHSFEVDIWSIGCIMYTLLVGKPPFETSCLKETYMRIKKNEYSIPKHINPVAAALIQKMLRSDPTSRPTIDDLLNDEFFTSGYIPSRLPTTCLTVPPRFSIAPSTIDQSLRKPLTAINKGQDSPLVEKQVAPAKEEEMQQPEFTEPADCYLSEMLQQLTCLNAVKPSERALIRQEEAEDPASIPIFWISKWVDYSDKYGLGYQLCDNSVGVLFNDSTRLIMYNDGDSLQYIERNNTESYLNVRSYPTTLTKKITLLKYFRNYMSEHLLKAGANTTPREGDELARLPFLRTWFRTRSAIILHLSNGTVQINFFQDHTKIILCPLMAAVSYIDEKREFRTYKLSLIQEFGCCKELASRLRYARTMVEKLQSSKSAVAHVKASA
T2 sequence (Q9H4B4 whole entry): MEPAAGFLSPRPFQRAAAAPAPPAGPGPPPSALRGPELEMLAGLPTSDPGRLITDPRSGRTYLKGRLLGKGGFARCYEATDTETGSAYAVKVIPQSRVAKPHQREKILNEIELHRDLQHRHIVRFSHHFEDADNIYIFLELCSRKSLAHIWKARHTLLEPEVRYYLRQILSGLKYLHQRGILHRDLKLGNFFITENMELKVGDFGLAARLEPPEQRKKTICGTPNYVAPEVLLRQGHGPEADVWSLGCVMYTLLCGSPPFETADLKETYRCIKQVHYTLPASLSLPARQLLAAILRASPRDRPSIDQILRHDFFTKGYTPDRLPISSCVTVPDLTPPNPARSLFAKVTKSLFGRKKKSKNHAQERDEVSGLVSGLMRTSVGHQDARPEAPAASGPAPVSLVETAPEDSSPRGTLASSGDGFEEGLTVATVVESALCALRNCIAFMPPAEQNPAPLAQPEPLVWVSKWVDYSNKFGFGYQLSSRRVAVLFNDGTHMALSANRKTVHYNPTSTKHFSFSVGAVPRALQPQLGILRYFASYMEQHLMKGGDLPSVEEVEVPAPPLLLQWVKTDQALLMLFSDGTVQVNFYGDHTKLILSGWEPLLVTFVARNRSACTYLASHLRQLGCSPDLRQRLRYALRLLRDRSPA
Sequence of Hepatocyte growth factor receptor (P08581 whole entry): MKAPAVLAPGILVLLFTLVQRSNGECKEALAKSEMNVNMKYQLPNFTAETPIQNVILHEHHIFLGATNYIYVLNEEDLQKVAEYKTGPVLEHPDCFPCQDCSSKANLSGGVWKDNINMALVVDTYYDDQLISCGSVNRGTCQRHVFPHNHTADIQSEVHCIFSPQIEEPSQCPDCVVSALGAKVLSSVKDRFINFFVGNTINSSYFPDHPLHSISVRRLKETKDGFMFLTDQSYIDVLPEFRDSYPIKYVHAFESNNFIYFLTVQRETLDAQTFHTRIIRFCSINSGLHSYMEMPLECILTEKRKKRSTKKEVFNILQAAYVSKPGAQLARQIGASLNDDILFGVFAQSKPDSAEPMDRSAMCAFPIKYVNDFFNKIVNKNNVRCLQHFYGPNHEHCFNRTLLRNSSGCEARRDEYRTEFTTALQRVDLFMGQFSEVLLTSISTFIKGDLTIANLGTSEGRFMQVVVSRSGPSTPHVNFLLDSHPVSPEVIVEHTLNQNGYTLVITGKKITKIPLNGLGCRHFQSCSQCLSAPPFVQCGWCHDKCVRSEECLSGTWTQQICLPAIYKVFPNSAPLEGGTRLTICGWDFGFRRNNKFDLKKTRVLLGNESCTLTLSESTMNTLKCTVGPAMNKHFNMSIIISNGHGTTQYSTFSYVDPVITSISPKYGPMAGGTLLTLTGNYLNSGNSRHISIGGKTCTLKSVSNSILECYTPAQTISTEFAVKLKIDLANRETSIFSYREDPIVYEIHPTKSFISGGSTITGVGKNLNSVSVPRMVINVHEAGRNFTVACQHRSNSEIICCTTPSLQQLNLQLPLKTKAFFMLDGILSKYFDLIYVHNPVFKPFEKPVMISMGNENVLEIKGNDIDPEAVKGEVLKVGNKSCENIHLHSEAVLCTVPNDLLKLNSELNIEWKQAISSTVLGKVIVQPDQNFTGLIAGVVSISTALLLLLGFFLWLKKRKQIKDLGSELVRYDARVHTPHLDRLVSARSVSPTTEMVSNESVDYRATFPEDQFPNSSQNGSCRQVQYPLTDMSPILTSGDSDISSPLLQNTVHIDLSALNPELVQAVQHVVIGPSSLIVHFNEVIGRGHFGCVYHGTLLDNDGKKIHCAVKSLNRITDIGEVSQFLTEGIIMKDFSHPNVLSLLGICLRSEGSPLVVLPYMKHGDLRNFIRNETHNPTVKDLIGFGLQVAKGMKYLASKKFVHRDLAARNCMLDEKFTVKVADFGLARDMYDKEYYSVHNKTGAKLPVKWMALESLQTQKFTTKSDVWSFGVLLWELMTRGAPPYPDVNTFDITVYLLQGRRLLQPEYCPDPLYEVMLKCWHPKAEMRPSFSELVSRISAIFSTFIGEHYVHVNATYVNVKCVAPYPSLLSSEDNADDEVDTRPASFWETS
Sequence of Cyclin-dependent kinase 1 (P06493 whole entry): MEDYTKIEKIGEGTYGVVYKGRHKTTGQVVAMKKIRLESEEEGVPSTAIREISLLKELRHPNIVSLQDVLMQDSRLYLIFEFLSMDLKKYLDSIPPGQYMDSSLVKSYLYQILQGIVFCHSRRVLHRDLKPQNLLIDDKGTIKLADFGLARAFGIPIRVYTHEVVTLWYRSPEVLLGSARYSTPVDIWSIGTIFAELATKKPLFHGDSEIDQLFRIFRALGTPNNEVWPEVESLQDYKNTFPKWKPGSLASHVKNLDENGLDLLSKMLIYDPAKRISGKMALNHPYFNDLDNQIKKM
Sequence of Mitogen-activated protein kinase 14 (Q16539 whole entry): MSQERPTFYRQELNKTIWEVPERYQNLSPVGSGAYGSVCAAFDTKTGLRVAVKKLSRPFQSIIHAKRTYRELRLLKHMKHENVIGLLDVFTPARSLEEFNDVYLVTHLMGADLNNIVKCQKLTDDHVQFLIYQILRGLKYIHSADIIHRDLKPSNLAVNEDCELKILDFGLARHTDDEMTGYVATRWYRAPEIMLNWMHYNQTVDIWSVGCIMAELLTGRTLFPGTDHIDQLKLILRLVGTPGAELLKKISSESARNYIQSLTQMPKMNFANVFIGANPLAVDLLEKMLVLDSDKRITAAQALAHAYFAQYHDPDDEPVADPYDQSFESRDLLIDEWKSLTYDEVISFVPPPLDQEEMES
Sequence of Tyrosine-protein kinase ABL1 (P00519 whole entry): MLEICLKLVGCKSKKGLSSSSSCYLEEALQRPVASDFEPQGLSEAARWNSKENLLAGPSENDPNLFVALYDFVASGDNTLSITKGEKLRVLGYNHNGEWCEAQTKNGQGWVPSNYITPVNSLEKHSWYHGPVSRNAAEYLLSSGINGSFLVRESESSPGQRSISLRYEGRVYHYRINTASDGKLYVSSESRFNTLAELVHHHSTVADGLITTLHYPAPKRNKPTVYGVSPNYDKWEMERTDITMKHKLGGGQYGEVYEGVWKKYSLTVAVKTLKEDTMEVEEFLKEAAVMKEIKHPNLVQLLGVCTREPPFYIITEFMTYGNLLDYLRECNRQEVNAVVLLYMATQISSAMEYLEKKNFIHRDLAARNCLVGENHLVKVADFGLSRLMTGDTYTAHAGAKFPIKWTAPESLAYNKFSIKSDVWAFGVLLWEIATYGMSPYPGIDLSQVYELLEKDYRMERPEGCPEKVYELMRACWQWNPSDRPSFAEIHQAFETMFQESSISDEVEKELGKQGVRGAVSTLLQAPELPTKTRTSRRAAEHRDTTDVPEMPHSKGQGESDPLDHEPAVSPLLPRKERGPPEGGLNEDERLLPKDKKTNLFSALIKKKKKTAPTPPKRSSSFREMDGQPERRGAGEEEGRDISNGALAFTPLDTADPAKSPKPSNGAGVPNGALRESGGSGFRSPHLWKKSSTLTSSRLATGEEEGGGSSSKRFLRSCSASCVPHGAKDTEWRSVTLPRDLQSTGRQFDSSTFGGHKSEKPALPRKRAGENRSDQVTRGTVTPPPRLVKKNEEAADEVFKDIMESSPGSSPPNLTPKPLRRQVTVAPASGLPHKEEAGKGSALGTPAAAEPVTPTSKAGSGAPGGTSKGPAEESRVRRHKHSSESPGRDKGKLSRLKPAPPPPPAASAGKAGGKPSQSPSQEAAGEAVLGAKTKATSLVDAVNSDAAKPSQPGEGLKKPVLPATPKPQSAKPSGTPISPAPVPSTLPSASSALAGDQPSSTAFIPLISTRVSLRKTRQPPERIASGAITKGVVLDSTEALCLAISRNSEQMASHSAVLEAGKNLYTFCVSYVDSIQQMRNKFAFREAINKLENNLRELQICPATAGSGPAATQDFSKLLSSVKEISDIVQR

## C/C(O)=C(\C#N)C(=O)Nc1cc(Br)ccc1Br
[1]
  IC50: 10.3 µM
Mus musculus [2]
  Activity: 1 10^9/L
Rattus norvegicus [3]
  Activity: 1.8 10^9/L
Mus musculus [4]
  LD10: > 80 mg/kg
[5]
  IC50: 32.5 µM
[6]
  IC50: > 500 µM
[7]
  IC50: 215 µM
[8]
  IC50: 262 µM
Mus musculus [9]
  Activity: 4.4 10^9/L
Mus musculus [10]
  Activity: 2.2 10^9/L
Mus musculus [11]
  Activity: 1.4 10^9/L
Mus musculus [12]
  Activity: Non-toxic
Mus musculus [13]
  Activity: Non-toxic
Mus musculus [14]
  Activity: Non-toxic
[15]
  IC50: > 500 µM
[16]
  IC50: 61 µM
[17]
  IC50: > 500 µM
Mus musculus [18]
  Activity: Non-toxic
Rattus norvegicus [19]
  Activity: Non-toxic
Mus musculus [20]
  Activity: 6.1 10^9/L
Mus musculus [21]
  LD10: > 100 mg/kg
Rattus norvegicus [22]
  Activity: 10.6 10^9/L
Mus musculus [23]
  Activity: Dose-dependent effect
Mus musculus [24]
  Activity: Non-toxic
[25]
  IC50: > 500 µM
Rattus norvegicus [26]
  LD10: > 80 mg/kg
Mus musculus [27]
  Activity: Non-toxic
[28]
  IC50: > 500 µM
Mus musculus [29]
  Activity: Non-toxic
Mus musculus [30]
  Activity: 3.9 10^9/L
Rattus norvegicus [31]
  Activity: Non-toxic
Mus musculus [32]
  LD10: > 200 mg/kg
Rattus norvegicus [33]
  Activity: 9.7 10^9/L
Mus musculus [34]
  Activity: 4.3 10^9/L
Mus musculus [35]
  Activity: Non-toxic
U-373MG ATCC
  Activity: Active
Mus musculus [36]
  Activity: 1.4 10^9/L
Mus musculus [37]
  Activity: Non-toxic
Rattus norvegicus [38]
  Activity: 9.8 10^9/L
Mus musculus [39]
  Activity: Non-toxic
Mus musculus [40]
  Activity: Non-toxic
[41]
  IC50: > 500 µM
Mus musculus [42]
  Activity: 5.8 10^9/L
Mus musculus [43]
  Activity: 6 10^9/L
Mus musculus [44]
  Activity: 1.7 10^9/L
Mus musculus [45]
  Activity: Non-toxic
Rattus norvegicus [46]
  Activity: 2.1 10^9/L
